Literature values in patent US8563554B2, “Deuterated pyrazinoisoquinoline compounds” (Concert Pharmaceuticals, Inc., priority 2009, dated 2013).

dose excreted in the kidneys (share of a dose of praziquantel): Approximately 80%
excreted in the form of metabolites (share of the renally excreted dose present as metabolites): > 99%
Compound: O=C(C1CCCCC1)N1CC(=O)N2CCc3ccccc3C2C1 (centres unmarked) [praziquantel, 2-(cyclohexylcarbonyl)-1,2,3,6,7,11b-hexahydro-4H-pyrazino[2,1-a]isoquinolin-4-one]
